Laboratory results taken from patent publication US12624350B2, “High-throughput single-nuclei and single-cell libraries and methods of making and of using” (ILLUMINA, INC., priority 2019, dated 2026).

Test system: HEK293T cells
Experiment: flavopiridol time course, sci-RNA-seq with hash ladder
Format: cell-based, human
Conditions: 300 nM, longest exposure times
Protocol: For the flavopiridol time course experiment, HEK293T cells were seeded onto a 6-well culture plate at a density of 4×10^5 cells per well. For the HDAC inhibitor time course and HDAC inhibitor and Dexamethasone co-treatment experiments, A549 cells were seeded onto a 96-well culture plate at a density of 2.5×10^4 cells per well.
The cells were grown for 24 hours after they were seeded onto the cell culture plates. For the flavopiridol time course experiment, 0.9 uL of 1 mM flavopiridol was added to each 6 well to attain final concentration of 300 nM. […]
The capture of hash ladder by nuclei is determined by factors including, but not limited to, sample processing and sequencing depth. […] We empirically determined that the ladder should be constructed so that around 6 million hash molecules are captured per nuclei (assuming that each nucleus takes up equal amount of hash molecules in the solution) to obtain a median hash UMI count of 1,000-5,000. […]
For the harvest of cells, media was removed and cells were washed with DPBS and dissociated off the plate using trypLE. […] Cells were then counted with a hemocytometer using 0.4% Trypan Blue. […]
Isolated and hashed nuclei were then permeabilized in permeabilization buffer (0.25% Triton-X in NSB) for 3 minutes on ice and then spun down. […] Cell counts were obtained by staining nuclei with 0.4% Trypan Blue (Sigma-Aldrich) and counted using a hemocytometer. […]

For `CN1CC[C@H](c2c(O)cc(O)c3c(=O)cc(-c4ccccc4Cl)oc23)[C@H](O)C1` [flavopiridol], the “RNA recovery per-cell (total RNA UMI counts)” value was “greatest reduction in RNA recovery per-cell”.
